Consider 4 compounds from ChEMBL document CHEMBL5120819, “Tanzawaic Acids from a Deep-Sea Derived Penicillium Species” (J Nat Prod, 2022).

The subject of series [1] is Escherichia coli. Description: […] activity against Escherichia coli ATCC 35218 assessed as reduction in microbial growth after 12 to 18 hrs by microbroth dilution method. The class given is functional. As to conditions: time 12-18 hrs. For orientation: Broth dilution looks for growth in wells or tubes with falling amounts of substance.
Series [2] has as its system Candida albicans. Description: Antifungal activity against Candida albicans ATCC 10231 assessed as reduction in microbial growth after 12 to 18 hrs by microbroth dilution method. Particulars: time 12-18 hrs. In kind it is functional.
Series [3] can be described thus: Cytotoxicity against human A549 cells assessed as reduction in cell viability at 13 uM by SRB assay relative to control. In kind it is toxicity, cell-based. Particulars: read-out: GI. For orientation: Sulforhodamine B stains cellular protein and so reports cell mass.

SMILES strings stand for the structures.

Broadly, the MIC is the lowest concentration found to suppress growth. For the compound `C[C@H]1C[C@@H](C)[C@@H]2[C@@H](/C=C/C=C/C(=O)O)[C@@H](C)C=C[C@H]2C1`, the results for the MIC in series [1] and in series [2] were 10 µg/mL and 20 µg/mL, respectively.

Consider `COc1ccc([C@@H]2SS[C@@]34C[C@]5(O)[C@H](O)C=C[C@@H](O)[C@@H]5ON3C(=O)[C@@H]2N(C)C4=O)c(O)c1OC`, for which the minimum inhibitory concentration (MIC) in series [2] stood at 30 µg/mL.

As for `COc1ccc([C@@H]2SS[C@@]34C[C@]5(O)[C@H](OC(=O)/C=C/C=C/[C@@H]6[C@H]7[C@H](C)C[C@H](C)C[C@@H]7C=C[C@@H]6C)C=C[C@@H](O)[C@@H]5ON3C(=O)[C@@H]2N(C)C4=O)c(O)c1OC`, in series [3], the inhibition at 13 µM was 51.7%.

As to `COc1ccc([C@@H]2SS[C@@]34C[C@]5(O)[C@H](OC(=O)/C=C/C=C/c6c(C)ccc7c6[C@H](C)C[C@H](C)C7)C=C[C@@H](O)[C@@H]5ON3C(=O)[C@@H]2N(C)C4=O)c(O)c1OC`, in series [3], the inhibition at 13 µM was 90.7%.
